# What was measured:
# RIF-1 tumors = assay: Murine tumor growth delay model (RIF-1 tumors in C3H mice); details: same doses, IP; for Median (days to 4×): median tumor volume quadrupling time; for T/C (tumor growth delay ratio): ratio of 4× growth times of treated and untreated control tumors; for Delay (tumor growth delay): versus untreated control
# Procedure: C3H mice were inoculated subcutaneously in the flank with 2×10^5 radiation-induced fibrosarcoma cells (RIF-1) to produce experimental tumors. When tumors reached ˜100 mm^3, test compounds (100 uL) were administered intraperitoneally (IP).
# Single compound groups received either amonafide (60 mg/kg), caffeine (75 mg/kg), or nicotinamide (1000 mg/kg).
# Combination groups received amonafide (60 mg/kg), in combination with either caffeine (75 mg/kg), or nicotinamide (1000 mg/kg).
# All compounds were administered at the same concentration as the combination groups (amonafide (60 mg/kg), caffeine (75 mg/kg), nicotinamide (1000 mg/kg). Sequential groups included one group treated with amonafide followed by treatment with caffeine, one group treated with caffeine followed by treatment with amonafide, one group treated with amonafide followed by treatment with nicotinamide, and one group treated with nicotinamide followed by treatment with amonafide.
# Four mice were used in each treatment group.
# Tumors were measured 3 times a week using Vernier calipers, and tumor volume (V) was calculated according to the formula: [formula]
# Where D1-3 are perpendicular diameters measured in millimeters (mm).
# Tumor volume quadrupling time was defined as the time (days) for treated and untreated tumors to grow to four times (4×) their initial treatment volume. Tumor growth delay ratio (T/C) was defined as the ratio of 4× growth times of treated (T) and untreated control (C) tumors.
# Solubility = format: physicochemical
SMILES,Median (days to 4×) (RIF-1 tumors),T/C (tumor growth delay ratio) (RIF-1 tumors),Delay (tumor growth delay) (RIF-1 tumors),Solubility in water compared to monohydrochloride salt (Solubility),Solubility in saline (Solubility; at therapeutic concentrations)
"CN(C)CCN1C(=O)c2cccc3cc(N)cc(c23)C1=O [Amonafide, 5-amino-2-[(dimethylamine)ethyl]-1H-benz[de-]isoquinoline-1,3-(2H)-dione]",7.5,1.6,2.97,more soluble in water,soluble in saline at therapeutic concentrations
"Cn1c(=O)c2c(ncn2C)n(C)c1=O [Caffeine, caffeine]",5.5,1.2,1.01,,
"NC(=O)c1cccnc1 [Nicotinamide, nicotinamide]",5.3,1.1,0.76,,

# Source: US20050288310A1, “Methods of treating cellular proliferative disease using naphthalimide and PARP-1 inhibitors” (priority 2004, published 2005)
